Key:
[1] = test system: IκB in peripheral blood monocytes; experiment: Flow cytometry assay, whole blood pretreated with effector: LPS induced degradation of IκB in monocytes; format: cell-based, human; conditions: monocytes, whole blood pretreated with inhibitor 2 hours at 37° C., then LPS; within 10 minutes
Protocol: Whole blood samples from normal human donors were collected. 100 μL aliquots of the whole blood were inserted into the bottom of 12×75 mm tubes. In order to reduce the potential for contamination of the sample with unfixed cells, blood was removed from the side of the tubes with a cotton swab. 1-2 μL of a proteasome effector was added to a first portion of the tubes and these tubes were incubated for 2 hours at 37° C. in a water bath. In this example, the proteasome effector was Bortezomib or MG-132, both proteasome inhibitors. Following pretreatment with the proteasome effector, 2 μL of 50 mg/mL stock solution (100 ng) of an IκB degradation agonist was added to the tubes and the tubes were incubated from 1 minute to 60 minutes at 37° C. in a water bath. In this example, the agonist was lipopolysaccharide (LPS). A second portion of the tubes were treated with the IκB degradation agonist and no proteasome effector. […]
(§1) Following the above wash steps, the fixed and permeabilized cells were resuspended in 100 μL of cold Wash Buffer comprising antibodies to specific intracellular antigens (e.g., signaling targets including P-ERK, P-Akt, P-p38, P-SAPK, P-S6, and antibodies to IκB). […] The supernatant was aspirated and the cell pellet was resuspended in 350 μL of Resuspension Buffer (PerFix-P® kit) and analyzed on a flow cytometer (GALLIOS™) using a protocol with defined population gates and series of dual parameter histograms. A CD45-KO vs. SS dual parameter histogram was collected and a gate around the leukocyte population based on the CD45+ fluorescence and SS characteristics was drawn to exclude debris (CD45 negative events). […] The collected flow cytometric data was analyzed using KALUZA™ software.
Phosphorylation of signaling pathways activated by LPS, including ERK, Akt (activated by PI3 Kinase), and the ribosomal S6 protein (a marker of protein synthesis) were also monitored together with the degradation of IκB. […] The degradation of IκB in cells pretreated with MG-132 or GDC-0941 was monitored by flow cytometry as described in Example 1. […]

IκB in granulocytes = experiment: Flow cytometry assay, whole blood pretreated with effector: IκB levels in granulocytes after LPS; format: cell-based, human; conditions: whole blood pretreated with inhibitor, then LPS; 60 minutes time period
Protocol: (§2) The assay generally comprises treating whole blood with an IκB degradation agonist and/or proteasome effector, fixing the blood cells, permeabilizing the fixed bloods cells, treating the fixed and permeabilized cells with an alcohol treatment to unmask intracellular phosphor-epitopes, and then staining the treated cells with antibodies for flow cytometry analysis.
(§3) Whole blood samples from normal human donors were collected. 100 μL aliquots of the whole blood were inserted into the bottom of 12×75 mm tubes. In order to reduce the potential for contamination of the sample with unfixed cells, blood was removed from the side of the tubes with a cotton swab. […]
(§4) Following the above wash steps, the fixed and permeabilized cells were resuspended in 100 μL of cold Wash Buffer comprising antibodies to specific intracellular antigens (e.g., signaling targets including P-ERK, P-Akt, P-p38, P-SAPK, P-S6, and antibodies to IκB). […] The supernatant was aspirated and the cell pellet was resuspended in 350 μL of Resuspension Buffer (PerFix-P® kit) and analyzed on a flow cytometer (GALLIOS™) using a protocol with defined population gates and series of dual parameter histograms. A CD45-KO vs. SS dual parameter histogram was collected and a gate around the leukocyte population based on the CD45+ fluorescence and SS characteristics was drawn to exclude debris (CD45 negative events). […]

[2] = test system: proteasome activity (IκB degradation, ERK activation) in monocytes; experiment: Proteasome inhibition in blood monocytes of Multiple Myeloma patients receiving Bortezomib therapy (LPS stimulation ex vivo); design: species or system human
Protocol: (§5) Whole blood samples from eight Multiple Myeloma (MM) patients were obtained. For three of the MM patients (MM003-MM005), whole blood samples were tested with or without LPS activation (10 min stimulation at 37° C.) and the samples were processed and analyzed for IκB degradation and signaling pathway activation as described in Example 1.
(§6) Blood samples from the 5 remaining MM patients samples were pretreated with Bortezomib or RP-171 (Carfilzomib, a covalent proteasome inhibitor) and then tested and analyzed with or without LPS activation (10 min LPS at 37 37° C.) for IκB degradation and signaling pathway activation as described in Example 1. […] All of the MM patients tested were receiving Bortezomib therapy.

[3] = test system: IκB in peripheral blood monocytes; experiment: TNFα induced degradation of IκB in monocytes from pretreated whole blood; format: cell-based, human; conditions: TNFα activated monocytes, whole blood pretreated with inhibitor
Protocol: (§7) Whole blood samples from normal human donors were collected. 100 μL aliquots of the whole blood were inserted into the bottom of 12×75 mm tubes. In order to reduce the potential for contamination of the sample with unfixed cells, blood was removed from the side of the tubes with a cotton swab. 1-2 μL of a proteasome effector was added to a first portion of the tubes and these tubes were incubated for 2 hours at 37° C. in a water bath. In this example, the proteasome effector was Bortezomib or MG-132, both proteasome inhibitors. […]
as §1, with “software. […]” for “software.”

[4] = test system: IκB in peripheral blood lymphocytes; experiment: Flow cytometry assay, whole blood pretreated with effector: LPS induced degradation of IκB in lymphocytes; format: cell-based, human; conditions: whole blood pretreated with inhibitor, then LPS
Protocol: as §2, §3, §4

[5] = test system: P-ERK in peripheral blood monocytes; experiment: TNFα induced ERK activation in monocytes from pretreated whole blood; format: cell-based, human; conditions: TNFα activated monocytes, whole blood pretreated with inhibitor
Protocol: as §7
as §1, with “software. […]” for “software.”

[6] = test system: peripheral blood lymphocytes; experiment: IκB degradation agonists in whole blood: IκB degradation and signaling pathway activation in lymphocytes; format: cell-based, human; conditions: for Pathways Activated: Target Cell Population: Lymphocytes (subpopulation)
Protocol: (§8) Whole blood samples from normal human donors were collected. 100 μL aliquots of the whole blood were inserted into the bottom of 12×75 mm tubes. In order to reduce the potential for contamination of the sample with unfixed cells, blood was removed from the side of the tubes with a cotton swab. 1-2 μL of a proteasome effector was added to a first portion of the tubes and these tubes were incubated for 2 hours at 37° C. in a water bath. In this example, the proteasome effector was Bortezomib or MG-132, both proteasome inhibitors. Following pretreatment with the proteasome effector, 2 μL of […] stock solution (100 ng) of an IκB degradation agonist was added to the tubes and the tubes were incubated from 1 minute to 60 minutes at 37° C. in a water bath. In this example, the agonist was lipopolysaccharide (LPS). A second portion of the tubes were treated with the IκB degradation agonist and no proteasome effector. 2 μL of an IκB degradation agonist was added to these tubes and the tubes were incubated from 1 minute to 60 minutes as described above. For control tubes, 2 μL of phosphate buffered saline (PBS) was added to the tubes and the tubes were incubated as described above.
(§9) Following incubation, the cells were fixed and permeabilized with a PerFix-P® kit (Beckman Coulter, Inc., Brea. Calif.) according to the manufacturer's instructions. The fixed and permeabilized cells were then washed with 2 mL of Wash Buffer (PBS (w/o Ca++/Mg++) with 2% fetal bovine serum (FBS), sterile filtered (0.22 μm filter)) in the tubes and centrifuged at 500×g for 4 minutes. The cell pellet was resuspended in 2 mL of cold (4° C.) Wash Buffer, centrifuged at 500×g for 4 minutes, and the supernatant was aspirated.
(§10) Following the above wash steps, the fixed and permeabilized cells were resuspended in 100 μL of cold Wash Buffer comprising antibodies to specific intracellular antigens (e.g., signaling targets including P-ERK, P-Akt, P-p38, P-SAPK, P-S6, and antibodies to IκB). The antibodies were labeled with different fluorochromes (e.g. fluorophores) to facilitate their-individual measurement of the intracellular antigens. In order to target specific cell populations in the assay, antibodies capable of differentiating cell populations within the blood sample were also included in some of the tubes. For example, anti-CD14 antibodies were included to specifically label monocytes, anti-CD3 antibodies or anti-CD19 antibodies were included to specifically label T or B-cells respectively, and/or anti-CD38/CD138 antibodies were included to specifically label plasma cells. The cells were incubated with the antibodies for 30 minutes at room temperature and then the cells were washed in 2 mL of cold Wash Buffer and centrifuged as described above. The supernatant was aspirated and the cell pellet was resuspended in 350 μL of Resuspension Buffer (PerFix-P® kit) and analyzed on a flow cytometer (GALLIOS™) using a protocol with defined population gates and series of dual parameter histograms. A CD45-KO vs. SS dual parameter histogram was collected and a gate around the leukocyte population based on the CD45+ fluorescence and SS characteristics was drawn to exclude debris (CD45 negative events). A minimum of 2,500 CD14+ events were collected. A stop count region was set from the CD14-PC7 vs. SS histogram gated on monocytes. Dual parameter histograms gated on the appropriate populations were created to measure the populations of interest. The collected flow cytometric data was analyzed using KALUZA™ software.
(§11) Phosphorylation of signaling pathways activated by TNF-α, including ERK, Akt, and the ribosomal S6 protein, was monitored together with the degradation of IκB in peripheral blood WBCs. Whole blood samples were treated, activated, and processed as described in Example 1 and the degradation of IκB in peripheral blood cells was monitored by flow cytometry as described in Example 1. The IκB degradation agonist used in this example was TNF-α. […]

[7] = test system: peripheral blood monocytes; experiment: IκB degradation agonists in whole blood: IκB degradation and signaling pathway activation in monocytes; format: cell-based, human; conditions: for Pathways Activated: Target Cell Population: Monocytes
Protocol: as §8, §9, §10, §11

granulocytes = experiment: IκB degradation agonists in whole blood: IκB degradation and signaling pathway activation in granulocytes; format: cell-based, human
Protocol: as §8, §9
as §1, with “IκB). The antibodies were labeled with different fluorochromes (e.g. fluorophores) to facilitate their-individual measurement of the intracellular antigens.” for “IκB).”

monocytes of MM patients = experiment: LPS stimulation of monocytes in whole blood of Multiple Myeloma patients; format: cell-based, human; conditions: 10 min LPS
Protocol: as §5, §6

[8] = three MM patients (MM003-MM005), 10 min LPS at 37° C.

With `CC(C)C[C@H](NC(=O)[C@H](Cc1ccccc1)NC(=O)c1cnccn1)B(O)O` [Bortezomib] the “loss in measured IκB” value [1] was ~10%, the “degradation of IκB in granulocytes” value (IκB in granulocytes) was “No significant degradation” and the proteasome inhibition ([2]; all MM patients tested, blood draw a week after the treatment) was “no proteasome inhibition was detected”. For the same molecule, the “inhibition of ERK activation following LPS stimulation” value [2, 8] was “no inhibition”, the “inhibition of IκB degradation following LPS stimulation” value [2, 8] was “no inhibition” and the “degradation of IκB” value [3] was “completely inhibited”. For the same molecule, the “LPS induced degradation of IκB in lymphocytes” value [4] was “inhibition of LPS induced degradation of IκB” and the “activation of ERK” value [5] was “completely inhibited”.
For lipopolysaccharide [LPS], the “Pathways Activated” value ([6]; pathway: ERK MAP kinase (Tpl-2)) was “ERK MAP kinase (Tpl-2)”, the “Pathways Activated” value ([6]; pathway: IκB > NFκB) was “IκB > NFκB” and the “Pathways Activated” value ([6]; pathway: PI3 kinase > Akt) was “PI3 kinase > Akt”. The “degradation of IκB in lymphocytes at 10 min” value ([6]; agonist alone, 10 min) was “no significant degradation”, the “Pathways Activated” value ([7]; pathway: IκB > NFκB) was “IκB > NFκB” and the “Pathways Activated” value ([7]; pathway: P-p 38 MAP kinase) was “P-p 38 MAP kinase”. For the same molecule, the “Pathways Activated” value ([7]; pathway: PI3 kinase > Akt) was “PI3 kinase > Akt”, the “Pathways Activated” value ([7]; pathway: SAP/JNK MAP kinase) was “SAP/JNK MAP kinase” and the “Pathways Activated” value ([7]; pathway: Tpl-2 > ERK/MAP kinase) was “Tpl-2 > ERK/MAP kinase”. For the same molecule, the “loss in measured IκB” value ([7]; agonist alone, normal donors, monocytes, within 10 minutes of treatment) was 60-70%, the “Pathways Activated” value (granulocytes; Target Cell Population: Granulocytes) was “P-p38 MAP kinase” and the “degradation of IκB in granulocytes” value (granulocytes; agonist alone) was “No significant degradation”. The “loss of IκB” value (monocytes of MM patients; six MM samples) was 60-70% and the “percent decrease of IκB MFI” value (monocytes of MM patients; two MM samples) was 48%.
